Results published in article PMC4793533 (BMC obesity, 2016).
Blank lines part the entries; values can stand above or below the molecule they belong to.

Key:
[1] = Pharmacokinetics of radioactivity in plasma and blood after a single oral dose of [9-14C]-oleic acid, with or without formoline L112 pre-treatment; type: in vivo, female Göttingen minipigs; settings: untreated minipigs (group A), single oral 10 mg/kg [9-14C]-oleic acid
Method: The study consisted of two treatment groups, each consisting of six female Göttingen minipigs. Group A served as the untreated group (control) and group B was pre-treated with polyglucosamine as follows; the animals of group B were dosed with 2 tablets of 500 mg formoline […] (1 g formoline […] in total) followed by approximately 10 ml of water via a syringe. The 2 tablets of polyglucosamine were inserted into 2 gelatine capsules. The minipigs were trained to eat these capsules. Thereafter, animals of both groups were allowed to drink water ad libitum. […] One animal of the control group A was inadequately dosed and was omitted from the experiment. The dosing capsules were prepared the day before the dose administration based on the bodyweight determined shortly before dosing and stored under nitrogen and protected from light at 2-10 °C. Immediately following dosing all animals received approximately 10 ml of water via a syringe. After 15 min, animals were allowed to drink water and eat their morning meal. This meal was eaten within a few minutes. The animals were housed in stainless steel metabolism cages under test conditions, 48 h prior to the experimental start date (dosing). Urine and faeces was collected at ambient temperature at 24 h time intervals, starting at 2 days prior to dosing and ending at 144 h post-dose. At each collection period, the cage was rinsed with 100 mL demi-water. […] The cannula was rinsed with physiological saline after each blood sampling. After the last blood sampling of the day the cannula was filled with 3 % poly vinyl pyrrolidone (PVP) and heparin, and closed with a lid. Subsamples of whole blood were collected for analysis and the remaining blood was used for preparation of plasma by centrifugation for 10 min at 2000 g. At the end of the experiment, the cages were rinsed thoroughly with water/ethanol/Triton X-100 (100/100/1; v/v/v). The minipigs were intravenously anaesthetized via the catheter with 60 mg sodium-pentobarbital per kg bodyweight. Next, the animals were sacrificed by exsanguination from the carotid artery. At sacrifice, the complete liver and contents of the gastrointestinal tract were collected. Prior to analysis of radioactivity, the faeces, liver and contents of the gastrointestinal tract were homogenized using an ultrathurrax. Radioactivity in all samples was determined by liquid scintillation counting on a Tri-Carb 3100TR liquid scintillation counter using QuantaSmartTM software. All counts were converted to DPM using tSIE/AEC (transformed Spectral Index of external standards coupled to Automatic Efficiency Correction). Radioactivity in faeces, blood and liver tissue was determined by combustion analysis using a Packard Sample Oxidizer System 307. The CO2 formed was mixed with CarbosorbTM and PermafluorTM and measured by LSC. Kinetic analysis of radioactivity (blood/plasma) was performed using WinNonlin® 6.3 applying non-compartmental model analysis. The following kinetic parameters were calculated where the data allow: Cmax, Tmax, half-life (t1/2), the volume of distribution, clearance, the Area under the concentration-time curve (AUC) (or AUC0-n, AUC0-∞) and the Mean Residence Time (MRT). Statistical analysis was assessed by using Mann-Whitney U-test (non-parametric test) using the Brightstat.

[2] = Recovery of radioactivity in excreta (urine, faeces, cage wash), liver and gastrointestinal tract contents; type: in vivo, female Göttingen minipigs
Method: The study consisted of two treatment groups, each consisting of six female Göttingen minipigs. Group A served as the untreated group (control) and group B was pre-treated with polyglucosamine as follows; the animals of group B were dosed with 2 tablets of 500 mg formoline […] (1 g formoline […] in total) followed by approximately 10 ml of water via a syringe. The 2 tablets of polyglucosamine were inserted into 2 gelatine capsules. The minipigs were trained to eat these capsules. Thereafter, animals of both groups were allowed to drink water ad libitum. […] The dosing capsules were prepared the day before the dose administration based on the bodyweight determined shortly before dosing and stored under nitrogen and protected from light at 2-10 °C. Immediately following dosing all animals received approximately 10 ml of water via a syringe. After 15 min, animals were allowed to drink water and eat their morning meal. […] The animals were housed in stainless steel metabolism cages under test conditions, 48 h prior to the experimental start date (dosing). Urine and faeces was collected at ambient temperature at 24 h time intervals, starting at 2 days prior to dosing and ending at 144 h post-dose. At each collection period, the cage was rinsed with 100 mL demi-water. […] The cannula was rinsed with physiological saline after each blood sampling. After the last blood sampling of the day the cannula was filled with 3 % poly vinyl pyrrolidone (PVP) and heparin, and closed with a lid. Subsamples of whole blood were collected for analysis and the remaining blood was used for preparation of plasma by centrifugation for 10 min at 2000 g. At the end of the experiment, the cages were rinsed thoroughly with water/ethanol/Triton X-100 (100/100/1; v/v/v). The minipigs were intravenously anaesthetized via the catheter with 60 mg sodium-pentobarbital per kg bodyweight. Next, the animals were sacrificed by exsanguination from the carotid artery. At sacrifice, the complete liver and contents of the gastrointestinal tract were collected. Prior to analysis of radioactivity, the faeces, liver and contents of the gastrointestinal tract were homogenized using an ultrathurrax. Radioactivity in all samples was determined by liquid scintillation counting on a Tri-Carb 3100TR liquid scintillation counter using QuantaSmartTM software. All counts were converted to DPM using tSIE/AEC (transformed Spectral Index of external standards coupled to Automatic Efficiency Correction). Radioactivity in faeces, blood and liver tissue was determined by combustion analysis using a Packard Sample Oxidizer System 307. The CO2 formed was mixed with CarbosorbTM and PermafluorTM and measured by LSC.

[3] = cited from earlier work
[4] = untreated minipigs, not a mass-balance study
[5] = up to 144 h post-dose, group A untreated, mean ± SD

AUC(0-12h) ([1]; blood): 40.0 ± 4.8 µg·h/g
AUC(0-24h) ([1]; blood): 61.7 ± 13.1 µg·h/g
AUC(0-48h) ([1]; blood): 88.3 ± 19.0 µg·h/g
AUC(0-60h) ([1]; blood): 97.2 ± 20.6 µg·h/g
AUC(0-72h) ([1]; blood): 105 ± 22 µg·h/g
AUCall(0-144h) ([1]; blood): 139 ± 25 µg·h/g
Cl ([1]; blood): 48.4 ± 7.9 g/h/kg
Cmax ([9-14C]-oleic acid and/or its metabolites) ([1]; blood): 8.5 ± 2.2 µg/g
MRTlast ([1]; blood): 43.6 ± 3.1 h
Tmax ([9-14C]-oleic acid and/or its metabolites) ([1]; blood): 4 ± 3 h
Vz ([1]; blood): 8860 ± 1848 g/kg
AUC(0-12h) ([1]; plasma): 65.6 ± 6.0 µg·h/g
AUC(0-24h) ([1]; plasma): 98.4 ± 17.2 µg·h/g
AUC(0-48h) ([1]; plasma): 136 ± 28 µg·h/g
AUC(0-60h) ([1]; plasma): 148 ± 31 µg·h/g
AUC(0-72h) ([1]; plasma): 157 ± 32 µg·h/g
AUCall(0-144h) ([1]; plasma): 190 ± 38 µg·h/g
Cl ([1]; plasma): 40.7 ± 5.5 g/h/kg
Cmax ([9-14C]-oleic acid and/or its metabolites) ([1]; plasma): 14.1 ± 3.6 µg/g
MRTlast ([1]; plasma): 35.9 ± 1.8 h
Tmax ([9-14C]-oleic acid and/or its metabolites) ([1]; plasma): 4 ± 3 h
Vz ([1]; plasma): 7008 ± 2962 g/kg
Recovery of radioactivity in urine ([2]; 0–24 h, group A untreated, mean ± SD): 0.79 ± 0.05 % of the applied dose
Recovery of radioactivity in urine ([2]; 24–48 h, group A untreated, mean ± SD): 0.28 ± 0.10 % of the applied dose
Recovery of radioactivity in urine ([2]; 48–72 h, group A untreated, mean ± SD): 0.09 ± 0.08 % of the applied dose
Recovery of radioactivity in urine ([2]; 72–96 h, group A untreated, mean ± SD): 0.08 ± 0.05 % of the applied dose
Recovery of radioactivity in urine ([2]; 96–120 h, group A untreated, mean ± SD): 0.05 ± 0.03 % of the applied dose
Recovery of radioactivity in urine ([2]; 120–144 h, group A untreated, mean ± SD): 0.03 ± 0.00 % of the applied dose
Recovery of radioactivity in urine ([2]; -24–0 h (pre-dose), group A untreated, mean ± SD): 0.01 ± 0.00 % of the applied dose
Recovery of radioactivity in urine ([2]; -48–24 h (pre-dose), group A untreated, mean ± SD): 0.00 ± 0.01 % of the applied dose
Recovery of radioactivity in Cagewash ([2]; group A untreated, mean ± SD): 0.07 ± 0.07 % of the applied dose
Recovery of radioactivity in GI-tract contents at sacrifice (144 h post-dose) ([2]; group A untreated, mean ± SD): 0.08 ± 0.04 % of the applied dose
Recovery of radioactivity in Liver at sacrifice (144 h post-dose) ([2]; group A untreated, mean ± SD): 0.37 ± 0.07 % of the applied dose
Total excreted (sum urine, faeces, cagewash) ([2]; group A untreated, mean ± SD): 7.90 ± 3.13 % of the applied dose
Overall recovery of the dosed amount of radioactivity (based on the AUC0-12h) [2, 4]: 34.7%
Overall recovery of the dosed amount of radioactivity (based on the Cmax) [2, 4]: 13.9%
Recovery of radioactivity in faeces, Total [2, 5]: 6.51 ± 2.88 % of the applied dose
Recovery of radioactivity in urine, Total [2, 5]: 1.33 ± 0.20 % of the applied dose
Structure (SMILES): CCCCCCCC/C=[14CH]\CCCCCCCC(=O)O [[9-^14C]-oleic acid]

Structure (SMILES): CCCCCCCC/C=C\CCCCCCCC(=O)O [oleic acid]
Excreted in the faeces ([3]; 31 test persons with normal fat assimilation, oral doses, radioactively labelled, after 6 days): less than 10%
Absorption after oral administration ([3]; untreated subjects): absorbed practically completely
